Literature values as cited in publication PMC7867784 (Translational Lung Cancer Research, 2021).

Test system: RET-rearranged NSCLC
Details: cited from earlier work; for response rate and PFS in NSCLC with RET rearrangement: recent clinical trials

Compound	response rate (RET-rearranged NSCLC, 7/25 cases) [%]	median PFS (RET-rearranged NSCLC) [months]	response rate and PFS in NSCLC with RET rearrangement
COc1cc2nccc(Oc3ccc(NC(=O)C4(C(=O)Nc5ccc(F)cc5)CC4)cc3)c2cc1OC [cabozantinib]	28	5.5	–
COc1ccc(CN2C3CC2CN(c2ccc(-c4cc(OCC(C)(C)O)cn5ncc(C#N)c45)cn2)C3)cn1 [selpercatinib]	–	–	high response rate and prolonged PFS
CO[C@]1(C(=O)N[C@@H](C)c2ccc(-n3cc(F)cn3)nc2)CC[C@H](c2nc(C)cc(Nc3cc(C)[nH]n3)n2)CC1 [pralsetinib]	–	–	high response rate and prolonged PFS
